Measured values as given in patent publication US12023348B2, “EGR1 targeting molecules for the treatment of inflammatory and hyperproliferative conditions” (The Medical Research, Infrastructure and Health Services …, priority 2015, dated 2024).

Assays:
SAMD9 [1] = assay: SAMD9 RNA expression by qRT-PCR in primary fibroblasts; type: cell-based, human; conditions: for SAMD9 expression in primary fibroblasts: 5 μM, 24 hours, qRT-PCR vs DMSO (FIG. 1C); for Dose and time dependence of SAMD9 up-regulation: primary fibroblasts, 5 μM over 72 hours, 1, 2, 5, 10 μM (FIGS. 2A-B)
Method: Primary fibroblasts were isolated from human adult skin and were grown in High Glucose DMEM, 10% Fetal Bovine Serum, L-glutamine and Pen-Strep. Medium was changed every 2-3 days. Cells were used at passage 2-3.
(§1) Of note, when cells were incubated with CaCx and ApDx (NCI, MA USA), they were grown in the appropriate medium with 0.1% FCS only.
(§2) RNA was extracted from cell cultures using an RNA extraction kit (Roche Diagnostics, Mahheim, Germany). cDNA was synthesized from 500 ng of total RNA using the Verso cDNA kit (Thermo Fisher Scientific, Waltham, MA, USA). cDNA PCR amplification was carried out using the Fast SYBR Green Master Mix in a StepOnePlus™ Real-Time PCR System (Applied Biosystems, Foster City, CA, USA) with gene-specific intron-crossing oligonucleotide pairs listed in Table 1 (below). For quantification, standard curves were obtained using serially diluted cDNA amplified in the same qRT-PCR run. The melting temperature (Tm) of the amplified products was measured to confirm the specificity of the reaction conditions. Cycling conditions were as follows: 95° C. for 10 minutes, 95° C. for 10 seconds, 62° C. for 15 seconds, and 72° C. for 25 seconds for a total of 40 cycles. Each sample was analyzed in triplicate. mRNA expression level for target gene was normalized to GAPDH. The results are based the amount of target, normalized to an endogenous reference (IACTB) and relative to a calibrator, as calculated by 2-ΔΔCT. All samples were run in triplicate. The expression levels of target genes were expressed as mRNA relative units.
(§3) The potential ability of these 31 molecules to induce SAMD9 expression in cell cultures was then scrutinized.

SAMD9 promoter = assay: High-throughput luciferase reporter screen in HeLa line stably expressing 585 bp SAMD9 promoter fragment; type: cell-based, human; conditions: Homo sapiens, HeLa; fold increase in promoter activity by luciferase assay vs cells treated with vehicle only; test drugs 10 μM, 24 hours; read-out: SAMD9 expression fold change in HeLa reporter assay
Method: HeLa cell lines stably expressing the constructs were generated under neomycin selection. Briefly, pGL4.17 containing a SAMD9 promoter fragment spanning 585 bp upstream to the TSS and an empty pGL4.17 vector were transfected into HeLa cells. Forty eight hours after transfection, standard medium was replaced with medium containing 600 μg/ml G418 (Sigma-Aldrich), cells were kept under G418 selection and the selective medium was replaced approximately every 2-3 days. After two passages, colonies of stable cells were isolated, expanded and frozen for further use.
Test drugs were dispensed at a concentration of 10 μM by a robotic system into 96-well plates containing 9000 cells/well expressing the pGL4.17 reporter construct carrying a 585 bp SAMD9 promoter fragment operably linked to luciferase gene or the empty pGL4.17 luciferase construct (Promega cat. no. E6721). Medium was removed after 24 hours and the cells subjected to Steady-Glo luciferase lysis-substrate solution assay (Promega) as described above. Liquid handling was done with the Tecan (Tecan) Freedom 150 (Robotic & MCA liquid Handling System) and the luciferase reading was done with a robot integrated Tecan Infinite® M1000 reader.
This cell line was then used to robotically screen a total of 1496 compounds obtained from the National Cancer Institute Diversity Set III and Oncology Drugs Set III small molecule libraries.

[2] = test system: human psoriatic skin graft; assay: Chimeric mice carrying human psoriatic skin; type: in vivo; conditions: for Clinical and histological psoriasiform phenotype (average improvement score) / Overt toxicity / Epidermal thickness / Keratinocyte proliferation (Ki67): i.p. five times a week; for Clinical and histological psoriasiform phenotype (average improvement score) / Overt toxicity: 10 days; for Clinical and histological psoriasiform phenotype (average improvement score): ApDx 5 mg/kg (p<0.0001), CaCx 15 mg/kg (p<0.05) (FIG. 6); for Overt toxicity / Epidermal thickness / Keratinocyte proliferation (Ki67): ApDx 5 mg/kg or CaCx 15 mg/kg; for Epidermal thickness / Keratinocyte proliferation (Ki67): biopsies after 10 days (FIGS. 7A-F, 8)
From the text: Chimeric mice carrying human psoriatic skin were generated using SCID mice, 2-3 months of age. Animals were maintained in a pathogen-free animal facility. A psoriasis-like phenotype was induced in normal human skin grafted onto the mice by intradermal injection of natural killer/T cells derived from psoriatic patients as previously described [Gilhar A et al. J Invest Dermatol (2011) 131: 118-124].
Formaldehyde-fixed 5-μm paraffin-embedded sections from skin biopsies were deparaffinized and treated with 3% H2O2 in methanol for 15 minutes at room temperature, warmed in a microwave oven in citrate buffer in a pressure cooker for 25 minutes, and stained with a monoclonal anti-Ki67 antibody (Thermo Scientific) for 1 hour at room temperature. Following 3 washings (10 minutes each) with phosphate-buffered saline (PBS), the antibodies were imaged using the ABC technique (Zymed Laboratories, South San Francisco, CA) and the slides were counterstained with hematoxylin.
Epidermal thickness was defined as the distance between the granular layer and the basement membrane and was measured at 10 randomly selected locations for each biopsy using NIS-Elements BR 3.2 software (Nikon, NY USA). An image was taken and was manually measured in the software by selecting an upper and lower border, as defined above. The distance was measured in microns.
as §2
To assess the potential therapeutic role of the compounds (ApDx and CaCx) of some embodiments of the invention, the two compounds were administered systemically (i.p) to chimeric mice carrying human psoriatic skin. In short, SCID mice, 2-3 months of age, were maintained in a pathogen-free animal facility. A psoriasis-like phenotype was induced in normal human skin grafted onto the mice by intradermal injection of natural killer/T cells derived from psoriatic patients as previously described [Gilhar A et al. J Invest Dermatol (2011) 131: 118-124]. Two weeks after natural killer/T-cell injection (6 weeks after human skin grafting), mice were injected i.p. five times a week. Four groups of mice were treated as follows: one group of mice was injected five times a week with the vehicle; a second group of mice was injected five times a week ApDx (5 mg/kg); a third group of mice was injected five times a week CaCx (15 mg/kg); and a fourth group of mice, was treated with dexamethasone (DEX) cream applied 5 times a week on the graft, as positive control (DEX was expected to attenuate inflammation in this model). Each group included five mice, and the treatment was performed for a total of 10 days. The grafts were harvested from the four groups of mice, paraffin-embedded, stained for hematoxylin and eosin (H&E), analyzed and scored for the average improvement of the clinical and histological psoriasiform phenotype.

SAMD9 [3] = assay: SAMD9 RNA expression by qRT-PCR in HeLa cells; type: cell-based, human; conditions: for SAMD9 expression in HeLa cells: 5 μM, 24 hours, qRT-PCR vs DMSO (FIG. 1C); for SAMD9 expression fold change in HeLa cells: fold increase in RNA gene expression vs cells treated with vehicle only
Method: HeLa cells were cultured in DMEM 4.5 g/l glucose medium containing 10% FCS, 1% L-glutamine and 1% penicillin and streptomycin (Biological Industries) and grown at 37° C. and 5% CO2.
as §1, §2, §3

SMILES | SAMD9 expression in primary fibroblasts (SAMD9 [1]) | Dose and time dependence of SAMD9 up-regulation (SAMD9 [1]) | fold induction at 10 µM (SAMD9 promoter) | Clinical and histological psoriasiform phenotype (average improvement score) [2] | Overt toxicity [2] | Epidermal thickness [2] | Keratinocyte proliferation (Ki67) [2] | SAMD9 expression in HeLa cells (SAMD9 [3]) | SAMD9 expression fold change in HeLa cells (SAMD9 [3]) | EGR1 RNA levels in treated skin ([2]; quantitative PCR vs vehicle group (FIG. 9), CaCx 15 mg/kg i.p.)
CCCN1c2ccc(N)cc2S(=O)(=O)c2cc(Cl)cc(Cl)c21 [Compound 629971, 7,9-dichloro-5,5-dioxo-10-propylphenothiazin-3-amine] | significantly induce | both dose and time dependent | 4.85 | significant clinical and histological attenuation | No overt toxicity | significant decrease | significant decrease | significantly induce | 20.5 fold | –
Cc1c2ccnc(C(N)=O)c2c(C)c2c1[nH]c1ccccc12.Cl [Compound 335142, 6H-Pyrido[4,3-b]carbazole-1-carboxamide, 5,11-dimethyl-, monohydrochloride] | significantly induce | both dose and time dependent | 2.95 | significant clinical and histological attenuation | No overt toxicity | significant decrease | significant decrease | significantly induce | 6.44 fold | significant decrease
